Read-outs that look alike come from different tables or passages of the source. Values belong to the compound of their own block, whether it stands above or below them.
Assays:
[1] = tested on: Hela (human cervical epithelial cancer cells), BV-2 (mouse microglia), RAW264.7 (mouse macrophages); assay: Confocal imaging with HKSOX-2 of O2^•− induced by mitochondrial respiratory inhibitors; type: cell-based; parameters: probe fluorescence response upon induction of mitochondrial O2^•−: dose or concentration left out as unconfirmed
Description: We also tested HKSOX-2 (5 μM) in detection of O2^•− induced by mitochondrial respiratory inhibitors (30 min treatment): antimycin A (complex III inhibitor; 10 μM), rotenone (complex I inhibitor; 10 μM) and FCCP ([…]; 10 μM). To validate the inhibitor effects, three different types of cell were used: Hela (human cervical epithelial cancer cells), BV-2 (mouse microglia), and RAW264.7 (mouse macrophages).
(§1) In each group, upper: fluorescence images; lower: fluorescence images merged with bright field images.

[2] = tested on: HCT116 (human colon cancer cells), RAW264.7 (mouse macrophages), BV-2 (mouse microglia); assay: Confocal imaging with HKSOX-1r of O2^•− induced by mitochondrial respiratory inhibitors; type: cell-based
Description: To validate the inhibitor effects, three different types of cell were used: HCT116 (human colon cancer cells), RAW264.7 (mouse macrophages), and BV-2 (mouse microglia).
as §1
(left) Untreated cells incubated with probe alone for 30 min. (right) Cells co-incubated with probe and antimycin A (5 μM) for 30 min. Upper: fluorescence images; lower: fluorescence images merged with bright field images.

[3] = tested on: mouse macrophages (RAW264.7 cells); assay: Confocal imaging of endogenous O2^•− with HKSOX-2m in PMA-activated macrophages; type: cell-based; details: 30 min; for effect on HKSOX-2m fluorescence in PMA-stimulated macrophages: Mdivi-1 100 μM, Gö6983 100 nM
Description: (§2) We assessed the application of HKSOX-2m (2 μM) in confocal imaging of O2^•− in different types of cell. For detection of endogenous O2^•−, two different cell types were used: mouse macrophages (RAW264.7 cells) and mouse microglia (BV-2 cells). PMA (phorbol-12-myristate-13-acetate), a PKC activator and acute O2^•− inducer, was used to activate macrophages. The chemical scavenger TEMPOL (4-hydroxy-TEMPO; 300 μM) was used to remove O2^•− in activated macrophages. Mdivi-1 (100 μM), a Drp-1 (dynamin-related protein 1) inhibitor that inhibits mitochondrial fission and subsequent mitochondrial O2^•− production, was used to block mitochondrial O2^•− formation. Additionally, Gö6983 (100 nM), a PKC inhibitor, was used to abolish PMA-mediated effects in O2^•− induction.

[4] = tested on: mouse microglia (BV-2 cells); assay: Confocal imaging of endogenous O2^•− with HKSOX-2m in PMA-activated microglia; type: cell-based; details: 30 min; for effect on HKSOX-2m fluorescence in PMA-stimulated microglia: Mdivi-1 100 μM, Gö6983 100 nM
Description: as §2

[5] = tested on: RAW264.7 mouse macrophages; assay: Confocal imaging of endogenous O2^•− with HKSOX-1r in LPS/IFN-γ activated macrophages; type: cell-based
Description: We assessed the application of HKSOX-1r in confocal imaging of O2^•− in different types of cell. For detection of endogenous O2^•−, we used mouse macrophages (RAW264.7 cells) as a cellular model. Bacterial lipopolysaccharide (LPS from Salmonella typhimurium; 500 ng/mL) and the proinflammatory cytokine interferon-γ (IFN-γ from mouse; 50 ng/mL) were used to activate macrophages. […] Additionally, the O2^•− decomposition catalyst FeTMPyP (50 μM) and chemical scavenger TEMPOL (4-hydroxy-TEMPO; 300 μM) were used to remove O2^•− in activated macrophages.
The cells were co-stained with mitochondrial dye MitoTracker Red (50 nM) and nuclear DNA dye Hoechst 33342 (150 ng/mL) for 30 min. Merged: all fluorescence images merged. (a) Untreated cells; (b) cells stimulated with LPS (500 ng/mL) and IFN-γ (50 ng/mL) for 14 h, followed by HKSOX-1r staining for 30 min; (c) cells co-treated with LPS/IFN-γ and gp91ds-tat (2 μM) for 14 h, followed by HKSOX-1r staining (30 min); (d) cells stimulated with LPS/IFN-γ for 14 h, followed by co-incubation of HKSOX-1r and FeTMPyP (50 μM) for 30 min; (e) cells stimulated with LPS/IFN-γ for 14 h, followed by co-incubation of HKSOX-1r and TEMPOL (300 μM) for 30 min.

[6] = Fluorescence response of probe to O2^•− generated by xanthine/xanthine oxidase and to other oxidants, reductants, esterase and GSH in phosphate buffer; details: 1 μM probe
Description: The stock solution of HKSOX-1 (10 mM) is diluted in 0.1 M potassium phosphate buffer at pH 7.4 to obtain a 10 μM solution, with excitation and emission spectra at 509 nm and 534 nm, respectively. As expected, the probe HKSOX-1 was non-fluorescent (FIG. 1).
The stock solution of HKSOX-2 (1 mM) is diluted in 0.1 M potassium phosphate buffer at pH 7.4 to obtain a 1 μM solution, with excitation and emission spectra at 535 nm and 562 nm, respectively.

[7] = tested on: BV-2 mouse microglial cells; assay: Confocal imaging comparison of HKSOX-2m and MitoSOX Red with multiple superoxide inducers, co-staining with MitoTracker Green and Hoechst; type: cell-based; details: for fluorescence with various stimulants: 40 min; for fluorescence turn-on response: Ex 543 nm
Description: To further validate the performance of HKSOX-2m as a mitochondria-targeting superoxide probe, we conducted confocal imaging of HKSOX-2m with multiple superoxide inducers in BV-2 mouse microglial cells (FIG. 11), and compared HKSOX-2m's performance with that of MitoSOX Red™ (a widely used commercial fluorescent probe for mitochondrial superoxide detection; Invitrogen), by using the same drugs as stimulants (FIG. 12). Briefly, BV-2 cells were co-incubated for 40 min with probes (HKSOX-2m or MitoSOX Red™) and general superoxide inducers (PMA and zymosan, which elicit superoxide production from multiple superoxide sources including mitochondria) or specific mitochondrial superoxide inducers (diethyl succinate, diethyl malonate, and rotenone, which target the mitochondrial respiratory chain complexes). […] Slight spatial shifts in fluorescence signal were occasionally observed in the HKSOX-2m and MitoTracker Green channels, which could be accounted for by mitochondrial dynamics and time lag in confocal laser scanning for each channel. […] In fact, fluorescence distribution of the mitochondrial dye MitoTracker Green (Ex 488; Em 505 nm long-pass) was grossly distorted in the presence of MitoSOX Red™ (due to its broad tailing in emission spectrum), resulting in a loss of mitochondrial morphology.

[8] = tested on: BV-2 mouse microglial cells; details: MitoSOX Red 5 μM (maximal dose according to manufacturer's protocol), extended incubation; cited from earlier work
[9] = TEMPOL 300 μM, readout HKSOX-2m 2 μM
[10] = 30 min, antimycin A, rotenone, FCCP 5 μM, malonic acid 500 μM, readout HKSOX-1r 2 μM
[11] = 30 min, antimycin A, rotenone, FCCP 10 μM, readout HKSOX-2

Compound: N#CC(C#N)=NNc1ccc(OC(F)(F)F)cc1 [FCCP]
degree of efficacy in inducing mitochondrial O2^•− production (rank order) [1]: antimycin A>FCCP>>rotenone
degree of efficacy in inducing mitochondrial O2^•− production (rank order) [2]: antimycin A>FCCP>>rotenone>>malonic acid

Compound: COc1ccc2c(c1)c(C1=C(c3c[nH]c4ccccc34)C(=O)NC1=O)cn2CCCN(C)C [Gö6983]
effect on HKSOX-2m fluorescence in PMA-stimulated macrophages [3]: reduced to near basal level
effect on HKSOX-2m fluorescence in PMA-stimulated microglia [4]: reduced to near basal level

Compound: COC(=O)CN(CC(=O)OC)C(=O)c1ccc2c(c1)C(=O)OC21c2cc(F)c(OS(=O)(=O)C(F)(F)F)c(F)c2Oc2c1cc(F)c(OS(=O)(=O)C(F)(F)F)c2F [HKSOX-1r]
probe fluorescence response upon induction of mitochondrial O2^•− ([2]; HKSOX-1r at 2 μM, 30 min): strong fluorescence response
probe fluorescence in stimulated macrophages relative to untreated ones ([5]; HKSOX-1r 2 μM, 30 min staining, LPS 500 ng/mL and IFN-γ 50 ng/mL for 14 h): much stronger fluorescence signals

enhancement in fluorescence intensity upon O2^•− ([6]; 10 equiv of O2^•− generated by X/XO system, 15 min, pH 7.4): > 23 fold
increase in fluorescence signals by other oxidants, reductants, esterase and GSH ([6]; 10 equiv of H2O2, NO, 1O2, ROO•, TBHP, •OH, ONOO−, HOCl, Fe2+, ascorbic acid, 1,4-hydroquinone, esterase 10 U/mL, GSH 5 mM): negligible increase
Compound: CCOC(=O)CCCN1c2cc3c(cc2C(C)CC1(C)C)C1(OC(=O)c2ccccc21)c1cc(F)c(OS(=O)(=O)C(F)(F)F)c(F)c1O3 (stereo not drawn) [HKSOX-2]
probe fluorescence response upon induction of mitochondrial O2^•− ([1]; 30 min): strong fluorescence response

Compound: CC1CC(C)(C)N(CCCC(=O)N2CCN(C(=O)CCCC[P+](c3ccccc3)(c3ccccc3)c3ccccc3)CC2)c2cc3c(cc21)C1(OC(=O)c2ccccc21)c1cc(F)c(OS(=O)(=O)C(F)(F)F)c(F)c1O3 (stereo not drawn) [HKSOX-2m]
probe fluorescence in PMA-stimulated macrophages relative to untreated ones ([3]; HKSOX-2m 2 μM, PMA 200 ng/mL): much stronger fluorescence signals
fluorescence with various stimulants ([7]; HKSOX-2m 2 μM, PMA, zymosan, diethyl succinate, diethyl malonate, rotenone): moderate to strong fluorescence
fluorescence turn-on response ([7]; HKSOX-2m working dose 2 μM, Em 559-623 nm band-pass): highly efficient
probe fluorescence in PMA-stimulated microglia relative to untreated ones ([4]; HKSOX-2m 2 μM, PMA 200 ng/mL): much stronger fluorescence signals

Compound: COc1cc(-n2c(=S)[nH]c3ccccc3c2=O)c(Cl)cc1Cl [Mdivi-1]
effect on HKSOX-2m fluorescence in PMA-stimulated macrophages [3]: reduced to near basal level
effect on HKSOX-2m fluorescence in PMA-stimulated microglia [4]: reduced to near basal level

Compound: Nc1ccc2c(c1)C(c1ccccc1)N(CCCCCC[P+](c1ccccc1)(c1ccccc1)c1ccccc1)c1cc(N)ccc1-2.[I-] (stereo not drawn) [MitoSOX Red™]
toxicity of the working dose ([7]; MitoSOX Red 4 μM): near-toxic
fluorescence with various stimulants ([7]; MitoSOX Red 4 μM, same stimulants): low to moderate fluorescence
fluorescence turn-on response ([7]; MitoSOX Red working dose 4 μM): rather sluggish
toxicity of the maximal dose [8]: cytotoxic

Compound: CC1(C)CC(O)CC(C)(C)N1[O] [TEMPOL, 4-hydroxy-TEMPO]
effect on the PMA-induced surge in O2^•− production [3, 9]: greatly suppressed
effect on the PMA-induced surge in O2^•− production [4, 9]: greatly suppressed
effect on HKSOX-1r fluorescence in LPS/IFN-γ activated macrophages ([5]; FeTMPyP 50 μM or TEMPOL 300 μM co-incubated with HKSOX-1r for 30 min): substantially attenuated

Compound: O=C(O)CC(=O)O [malonic acid]
degree of efficacy in inducing mitochondrial O2^•− production (rank order) [2, 10]: antimycin A>FCCP>>rotenone>>malonic acid

Compound: C=C(C)[C@H]1Cc2c(ccc3c2O[C@@H]2COc4cc(OC)c(OC)cc4[C@@H]2C3=O)O1 [rotenone]
degree of efficacy in inducing mitochondrial O2^•− production (rank order) [1, 11]: antimycin A>FCCP>>rotenone
degree of efficacy in inducing mitochondrial O2^•− production (rank order) [2, 10]: antimycin A>FCCP>>rotenone>>malonic acid

Compound: antimycin A
degree of efficacy in inducing mitochondrial O2^•− production (rank order) [1, 11]: antimycin A>FCCP>>rotenone
degree of efficacy in inducing mitochondrial O2^•− production (rank order) [2, 10]: antimycin A>FCCP>>rotenone>>malonic acid
